From patent US20210030703A1, “USE OF CALORIC RESTRICTION MIMETICS FOR POTENTIATING CHEMO-IMMUNOTHERAPY FOR THE TREATMENT OF CANCERS” (INSERM (INSTITUT NATIONAL DE LA SANTÉ ET DE LA RECHERCHE …, priority 2018, published 2021)

Legend:
CTLA-4 = CTLA-4 expression in tumors; assay type: in vivo, C57B1/6 mice; conditions: MTX alone or together with fasting or CRMs; data not shown
whole MCA205 tumors = assay: RNA-seq analyses of whole tumors; assay type: in vivo, C57B1/6 mice; conditions: day 3 post-chemotherapy (MTX); data not shown
mammary carcinomas = assay: Hormone-induced (MPA/DMBA) orthotopic mammary tumor model; assay type: in vivo, BALB/c mice; conditions: combination of MTX-based chemotherapy and HC, versus MTX and HC alone; data not shown
Excerpt: Breast cancers were induced in young (7-weeks-old) female BALB/c mice by implantation of medroxyprogesterone acetate (MPA)-releasing pellets followed by gavage with the DNA damaging agent 7,12-Dimethylbenz[a]anthracene (DMBA) for the following 6 weeks. Note that the interval between the last DMBA injection and the manifestation of palpable breast cancer lesions is rather variable. When palpable tumors appeared, mice were randomized into the different experimental groups and treated with intraperitoneal injections of hydroxycitrate (100 mg/kg) at d-1 and d0 and/or intraperitoneal injections of 5.17 mg/kg of Mitoxantrone. Neutralizing anti-CD11b antibodies (clone M1/70, ref BE0007 from BioXCell™) or their isotype control (clone LTF-2, ref BE0090 from BioXCell™) were then injected at d-1, d0 and d7. Tumor growth was followed by calculating tumor surface (mm^2) with the formula length×width.

MCA205 fibrosarcoma = assay: Subcutaneous MCA205 fibrosarcoma: tumor growth, cure and survival under chemo-immunotherapy; assay type: in vivo, C57B1/6 mice

Structure (SMILES) | Expression of CTLA-4 (CTLA-4) | Evidence of local immunostimulation (whole MCA205 tumors) | Reduction of tumor growth and prolongation of mouse survival (mammary carcinomas) | Cure rate (MCA205 fibrosarcoma; CRM added to OXA+PD-1 blockade) | Cured mice (MCA205 fibrosarcoma; CRM added to OXA+PD-1 blockade) | Efficacy of OXA and anti-PD-1 combination when the CRM is added (MCA205 fibrosarcoma; figure legend FIG. 7)
O=C1c2c(O)ccc(O)c2C(=O)c2c(NCCNCCO)ccc(NCCNCCO)c21 [MTX, mitoxantrone] | No changes | – | – | – | – | –
O=C(O)CC(O)(C(=O)O)C(O)C(=O)O (stereo not drawn) [HC, hydroxycitrate] | – | failed to yield convincing evidence | highly efficient in reducing tumor growth and prolonging mouse survival | 80% | 16 out of 20 | further enhanced
